From ChEMBL document CHEMBL6114969, “Ultra-short lipopeptides containing d-amino acid exhibiting excellent stability and antibacterial activity against gram-positive bacteria” (Eur J Med Chem, 2025)
Values after ≈ are worked out from the molar mass of the structure shown. Active and inactive are the calls of the source. The rule behind the calls is not given here.

Columns and labels:
[1] = Retention time of compound by RP-HPLC analysis; format: physicochemical
[2] = tested on: Staphylococcus aureus; test: Antibacterial activity against Staphylococcus aureus ATCC 25923 incubated for 18 to 24 hrs by broth microdilution method; format: functional; settings: time 18-24 hrs
[3] = tested on: Staphylococcus aureus; test: Antibacterial activity against Staphylococcus aureus ATCC 29213 incubated for 18 to 24 hrs by broth microdilution method; format: functional; settings: time 18-24 hrs
[4] = tested on: Staphylococcus aureus; test: Antibacterial activity against methicillin-resistant Staphylococcus aureus ATCC 33591 incubated for 18 to 24 hrs by broth microdilution method; format: functional; settings: time 18-24 hrs
[5] = tested on: Staphylococcus epidermidis; test: Antibacterial activity against Staphylococcus epidermidis ATCC 12228 incubated for 18 to 24 hrs by broth microdilution method; format: functional; settings: time 18-24 hrs
[6] = tested on: Enterococcus faecalis; test: Antibacterial activity against Enterococcus faecalis ATCC 29212 incubated for 18 to 24 hrs by broth microdilution method; format: functional; settings: time 18-24 hrs
[7] = Hemolytic activity in mouse Red blood cells incubated for 1 hr by absorbance based analysis; format: toxicity, cell-based; settings: erythrocyte
[8] = tested on: Staphylococcus aureus; test: Antibacterial activity against methicillin-resistant Staphylococcus aureus ATCC 33591 incubated for 18 to 24 hrs in presence of 0.5 mg/ml of trypsin by broth microdilution method; format: functional; settings: time 18-24 hrs
[9] = tested on: Staphylococcus aureus; test: Antibacterial activity against methicillin-resistant Staphylococcus aureus ATCC 33591 incubated for 18 to 24 hrs in presence of 1 mg/ml of trypsin by broth microdilution method; format: functional; settings: time 18-24 hrs
[10] = tested on: Staphylococcus aureus; test: Antibacterial activity against methicillin-resistant Staphylococcus aureus ATCC 33591 incubated for 18 to 24 hrs in presence of 2 mg/ml of trypsin by broth microdilution method; format: functional; settings: time 18-24 hrs
[11] = tested on: Staphylococcus aureus; test: Antibacterial activity against methicillin-resistant Staphylococcus aureus ATCC 33591 incubated for 18 to 24 hrs in presence of 0.5 mg/ml of chymotrypsin by broth microdilution method; format: functional; settings: time 18-24 hrs
[12] = tested on: Staphylococcus aureus; test: Antibacterial activity against methicillin-resistant Staphylococcus aureus ATCC 33591 incubated for 18 to 24 hrs in presence of 1 mg/ml of chymotrypsin by broth microdilution method; format: functional; settings: time 18-24 hrs
[13] = tested on: Staphylococcus aureus; test: Antibacterial activity against methicillin-resistant Staphylococcus aureus ATCC 33591 incubated for 18 to 24 hrs in presence of 2 mg/ml of chymotrypsin by broth microdilution method; format: functional; settings: time 18-24 hrs
[14] = tested on: Staphylococcus aureus; test: Antibacterial activity against methicillin-resistant Staphylococcus aureus ATCC 33591 incubated for 18 to 24 hrs in presence of 0.5 mg/ml of pepsin by broth microdilution method; format: functional; settings: time 18-24 hrs
[15] = tested on: Staphylococcus aureus; test: Antibacterial activity against methicillin-resistant Staphylococcus aureus ATCC 33591 incubated for 18 to 24 hrs in presence of 1 mg/ml of pepsin by broth microdilution method; format: functional; settings: time 18-24 hrs
[16] = tested on: Staphylococcus aureus; test: Antibacterial activity against methicillin-resistant Staphylococcus aureus ATCC 33591 incubated for 18 to 24 hrs in presence of 2 mg/ml of pepsin by broth microdilution method; format: functional; settings: time 18-24 hrs
[17] = tested on: Staphylococcus aureus; test: Antibacterial activity against methicillin-resistant Staphylococcus aureus ATCC 33591 assessed as fold change in MIC incubated for 18 to 24 hrs in presence of MgCl2 by broth microdilution method; format: functional; settings: time 18-24 hrs
[18] = tested on: Staphylococcus aureus; test: Antibacterial activity against methicillin-resistant Staphylococcus aureus ATCC 33591 assessed as fold change in MIC incubated for 18 to 24 hrs in presence of NaCl by broth microdilution method; format: functional; settings: time 18-24 hrs
[19] = tested on: Staphylococcus aureus; test: Antibacterial activity against methicillin-resistant Staphylococcus aureus ATCC 33591 assessed as fold change in MIC incubated for 18 to 24 hrs in presence of 10 percent FBS by broth microdilution method; format: functional; settings: time 18-24 hrs
[20] = tested on: Staphylococcus aureus; test: Antibacterial activity against methicillin-resistant Staphylococcus aureus ATCC 33591 assessed as fold change in MIC incubated for 18 to 24 hrs in presence of 10 percent mouse serum by broth microdilution method; format: functional; settings: time 18-24 hrs
[21] = tested on: Staphylococcus aureus; test: Induction of drug resistance in Staphylococcus aureus ATCC 25923 at sub-MIC measured after 2 passages; format: functional, organism-based
[22] = tested on: Staphylococcus aureus; test: Antibacterial activity against drug-resistant Staphylococcus aureus ATCC 25923 incubated for 18 to 24 hrs; format: functional; settings: time 18-24 hrs
[23] = tested on: Staphylococcus aureus; test: Antibacterial activity against ciprofloxacin-resistant Staphylococcus aureus ATCC 25923 incubated for 18 to 24 hrs; format: functional; settings: time 18-24 hrs
[24] = tested on: Staphylococcus aureus; test: Antibacterial activity against polymyxin B-resistant Staphylococcus aureus ATCC 25923 incubated for 18 to 24 hrs; format: functional; settings: time 18-24 hrs
[25] = tested on: Staphylococcus aureus; test: Antibacterial activity against gentamicin-resistant Staphylococcus aureus ATCC 25923 incubated for 18 to 24 hrs; format: functional; settings: time 18-24 hrs
[26] = tested on: Staphylococcus aureus; test: Antibacterial activity against drug-resistant methicillin-resistant Staphylococcus aureus ATCC 33591 incubated for 18 to 24 hrs; format: functional; settings: time 18-24 hrs
[27] = tested on: Staphylococcus aureus; test: Antibacterial activity against ciprofloxacin-resistant methicillin-resistant Staphylococcus aureus ATCC 33591 incubated for 18 to 24 hrs; format: functional; settings: time 18-24 hrs
[28] = tested on: Staphylococcus aureus; test: Antibacterial activity against polymyxin B-resistant methicillin-resistant Staphylococcus aureus ATCC 33591 incubated for 18 to 24 hrs; format: functional; settings: time 18-24 hrs
[29] = tested on: Staphylococcus aureus; test: Antibacterial activity against gentamicin-resistant methicillin-resistant Staphylococcus aureus ATCC 33591 incubated for 18 to 24 hrs; format: functional; settings: time 18-24 hrs

SMILES: CCCCCCCCCCCC(=O)N[C@@H](CCCNC(=N)N)C(=O)N[C@H](CCCNC(=N)N)C(=O)N[C@H](Cc1c[nH]c2ccccc12)C(=O)O
- Retention_time [1]: 19.303 min
- MIC [2]: 4 µM (≈ 2.8 µg/mL)
- MIC [3]: 4 µM (≈ 2.8 µg/mL)
- MIC [4]: 4 µM (≈ 2.8 µg/mL)
- MIC [5]: 2 µM (≈ 1.4 µg/mL)
- MIC [6]: 16 µM (≈ 11.2 µg/mL)
- HC10 [7]: 64 µM
- MIC [8]: 128 µM
- MIC [9]: > 128 µM
- MIC [10]: > 128 µM
- MIC [11]: 8 µM
- MIC [12]: 8 µM
- MIC [13]: 32 µM
- MIC [14]: 4 µM
- MIC [15]: 8 µM
- MIC [16]: 16 µM
- fold change (FC) [17]: <3
- fold change (FC) [18]: <3
- fold change (FC) [19]: 8
- fold change (FC) [20]: 4

SMILES: CCCCCCCCCCCC(=O)N[C@@H](CCCNC(=N)N)C(=O)N[C@@H](CCCNC(=N)N)C(=O)N[C@H](Cc1c[nH]c2ccccc12)C(=O)O
- Retention_time [1]: 18.476 min
- MIC [2]: 4 µM (≈ 2.8 µg/mL)
- MIC [3]: 4 µM (≈ 2.8 µg/mL)
- MIC [4]: 4 µM (≈ 2.8 µg/mL)
- MIC [5]: 2 µM (≈ 1.4 µg/mL)
- MIC [6]: 16 µM (≈ 11.2 µg/mL)
- HC10 [7]: 128 µM
- MIC [8]: > 128 µM
- MIC [9]: > 128 µM
- MIC [10]: > 128 µM
- MIC [11]: > 128 µM
- MIC [12]: > 128 µM
- MIC [13]: > 128 µM
- MIC [14]: 16 µM
- MIC [15]: 128 µM
- MIC [16]: 128 µM
- fold change (FC) [17]: <3
- fold change (FC) [18]: <3
- fold change (FC) [19]: 8
- fold change (FC) [20]: 4

SMILES: O=C(O)c1cn(C2CC2)c2cc(N3CCNCC3)c(F)cc2c1=O [CIPROFLOXACIN]
- MIC [2]: 1 µM (≈ 0.331 µg/mL)
- MIC [3]: 1 µM (≈ 0.331 µg/mL)
- MIC [4]: 256 µM (≈ 84.8 µg/mL)
- MIC [5]: ≤ 0.5 µM
- MIC [6]: 2 µM (≈ 0.663 µg/mL)
- Activity [21]: Active
- MIC [22]: > 128 µM
- MIC [23]: 8.19 mM (≈ 2710 µg/mL)
- MIC [24]: > 128 µM
- MIC [25]: 128 µM (≈ 42.4 µg/mL)
- MIC [26]: > 128 µM
- MIC [27]: 8.19 mM (≈ 2710 µg/mL)
- MIC [28]: > 128 µM
- MIC [29]: 128 µM (≈ 42.4 µg/mL)

SMILES: CCCCCCCCCCCC(=O)N[C@H](CCCNC(=N)N)C(=O)N[C@@H](CCCNC(=N)N)C(=O)N[C@@H](Cc1c[nH]c2ccccc12)C(=O)O
- Retention_time [1]: 19.259 min
- MIC [2]: 4 µM (≈ 2.8 µg/mL)
- MIC [3]: 4 µM (≈ 2.8 µg/mL)
- MIC [4]: 4 µM (≈ 2.8 µg/mL)
- MIC [5]: 2 µM (≈ 1.4 µg/mL)
- MIC [6]: 8 µM (≈ 5.59 µg/mL)
- HC10 [7]: 64 µM
- MIC [8]: 64 µM
- MIC [9]: 64 µM
- MIC [10]: 128 µM
- MIC [11]: 16 µM
- MIC [12]: 32 µM
- MIC [13]: 128 µM
- MIC [14]: 8 µM
- MIC [15]: 16 µM
- MIC [16]: 32 µM
- fold change (FC) [17]: <3
- fold change (FC) [18]: <3
- fold change (FC) [19]: 8
- fold change (FC) [20]: 4

SMILES: CCCCCCCCCCCC(=O)N[C@H](CCCNC(=N)N)C(=O)N[C@@H](CCCNC(=N)N)C(=O)N[C@H](Cc1c[nH]c2ccccc12)C(=O)O
- Retention_time [1]: 19.092 min
- MIC [2]: 4 µM (≈ 2.8 µg/mL)
- MIC [3]: 4 µM (≈ 2.8 µg/mL)
- MIC [4]: 4 µM (≈ 2.8 µg/mL)
- MIC [5]: 2 µM (≈ 1.4 µg/mL)
- MIC [6]: 16 µM (≈ 11.2 µg/mL)
- HC10 [7]: 128 µM
- MIC [8]: 8 µM
- MIC [9]: 16 µM
- MIC [10]: 32 µM
- MIC [11]: 8 µM
- MIC [12]: 8 µM
- MIC [13]: 8 µM
- MIC [14]: 4 µM
- MIC [15]: 8 µM
- MIC [16]: 8 µM
- fold change (FC) [17]: <3
- fold change (FC) [18]: <3
- fold change (FC) [19]: 8
- fold change (FC) [20]: 4
